Results from patent publication US12053506B2, “Romo1-derived antimicrobial peptides and variants thereof” (priority 2019, dated 2024).
Values after ≈ are worked out from the molar mass of the structure shown. Read-outs that look alike come from different tables or passages of the source. Non-standard residues stand in square brackets, D forms with d. Residues, ends and D or L forms follow the SMILES beside them. No end group written: not given here.

B1: MPVAVGPYGQSQPSCFDRVKMGFVMGCAVGMAAGALFGTFSCLRIGMRGRELMGGIGKTMMQSGGTFGTFMAIGMGIRC (protein)
chain: MPVAVGPYGQSQPSCFDRVKMGFVMGCAVGMAAGALFGTFSCLRIGMRGRELMGGIGKTMMQSGGTFGTFMAIGMGIRC
modifications: Homo sapiens Romo1

Key:
[1] = system: Pseudomonas aeruginosa (ATCC 27853); format: cell-based; conditions: for MBC Pseudomonas aeruginosa: Tables 11-15, no unit printed
From the text: (§1) Romo1 protein comprises two α-helices. The present inventors synthesized the α-helix 2 region having both hydrophilicity and hydrophobicity, and evaluated the antibacterial activity thereof using minimum bactericidal concentration (MBC) assay. The α-helix 2 region was named KU-5279 (the 52-79 amino acid region of Romo1 protein). Then, in order to identify peptides that are beneficial for human application and have excellent antibacterial activity, the present inventors synthesized several peptides comprising a sequence of contiguous amino acids starting at any amino acid selected from the 52-79 amino acid region of Romo1 protein, and comparatively evaluated the antibacterial activities of the peptides by minimum bactericidal concentration assay (See Table 1 below for information on each peptide). Evaluation of the antibacterial activity of each peptide by minimum bactericidal concentration assay was specifically performed as follows. First, each of Pseudomonas aeruginosa (ATCC 27853) and Staphylococcus aureus (ATCC 29213) was cultured in 3% (w/v) TSB (Tryptic Soy Broth) liquid medium at 37° C. and 200 rpm for 4 hours, and then further cultured under the same conditions for 3 hours to a concentration of 5×10^6 CFU/ml. Strain solutions were prepared by diluting each of the further cultured strains with SP (sodium phosphate; 10 mM sodium phosphate, 1% TSB) buffer to a final concentration of 2×10^5 CFU/ml. Then, each peptide at varying concentrations (0 μg/ml to 300 μg/ml) was dispensed into each well of a 96-well microplate, and 100 μl (1×10^5 CFU/ml) of each of the prepared strain solutions was added thereto, mixed therewith, and allowed to react with the peptide in an incubator at 37° C. for 1 hour. In addition, 30 g/L of TS (tryptic soy) and 15 g/L of agar were dissolved in distilled water and sterilized, and then 25 ml of the solution was poured onto a 100 mm round plate and solidified at room temperature for one day or more, thereby preparing a TS agar plate. 10 μl of each reaction solution of the peptide and the strain was plated on the TS agar plate at a constant size, and incubated in an incubator at 37° C. for 18 hours, and then colony formation on the plate was checked. The minimum bactericidal concentration was defined as the minimum concentration of the peptide at which no colony was formed, and the experimental results are shown in Table 1 below.

[2] = system: Staphylococcus aureus (ATCC 29213); format: cell-based; conditions: for MBC Staphylococcus aureus: Tables 11-15, no unit printed
From the text: as §1

[3] = system: methicillin-resistant Staphylococcus aureus (ATCC 33591); conditions: Tables 11-15, no unit printed
Method: First, each of Pseudomonas aeruginosa (ATCC 27853) and Staphylococcus aureus (ATCC 29213) was cultured in 3% (w/v) TSB (Tryptic Soy Broth) liquid medium at 37° C. and 200 rpm for 4 hours, and then further cultured under the same conditions for 3 hours to a concentration of 5×10^6 CFU/ml. Strain solutions were prepared by diluting each of the further cultured strains with SP (sodium phosphate; 10 mM sodium phosphate, 1% TSB) buffer to a final concentration of 2×10^5 CFU/ml.
Then, each peptide at varying concentrations (0 μg/ml to 300 μg/ml) was dispensed into each well of a 96-well microplate, and 100 μl (1×10^5 CFU/ml) of each of the prepared strain solutions was added thereto, mixed therewith, and allowed to react with the peptide in an incubator at 37° C. for 1 hour.
In addition, 30 g/L of TS (tryptic soy) and 15 g/L of agar were dissolved in distilled water and sterilized, and then 25 ml of the solution was poured onto a 100 mm round plate and solidified at room temperature for one day or more, thereby preparing a TS agar plate. 10 μl of each reaction solution of the peptide and the strain was plated on the TS agar plate at a constant size, and incubated in an incubator at 37° C. for 18 hours, and then colony formation on the plate was checked.
Specifically, each type of bacteria was cultured in 3% (w/v) TSB (Tryptic Soy Broth) liquid medium at 37° C. and 200 rpm for 4 hours, and then further cultured under the same conditions for 3 hours to a concentration of 5×10^6 CFU/ml. Strain solutions were prepared by diluting each of the […] of 2×10^5 CFU/ml.
Then, the KU-5878 peptide at varying concentrations (0 μg/ml to 300 μg/ml) was dispensed into each well of a 96-well microplate, and 100 μl (1×10^5 CFU/ml) of each of the prepared strain solutions was added thereto, mixed therewith, and allowed to react with the peptide in an incubator at 37° C. for 1 hour.
In addition, 10 μl of each reaction solution of the peptide and the strain was plated on the TS agar plate at a constant size, and incubated in an incubator at 37° C. for 18 hours, and then colony formation on the plate was checked.

[4] = system: CRPA; test: MBC, evaluation of antibacterial activities of KU-5878 variants; format: cell-based; conditions: Tables 11-15, no unit printed
Method: Variants were prepared by deleting one amino acid from the amino acid sequence of KU-5878 (SEQ ID NO: 13), and the antibacterial activities thereof were evaluated.
Variants were prepared by deleting two or more amino acids from the amino acid sequence of KU-5878 (SEQ ID NO: 13), and the antibacterial activities thereof were evaluated.
One amino acid in the amino acid sequence of KU-5878 (SEQ ID NO: 13) was substituted, and the antibacterial activities of the peptides were evaluated.
Substitutions of Q62K, S63K and T66K were sequentially added to the amino acid sequence of KU-5878-T59K, and the antibacterial activities of the peptides were evaluated.
An amino acid repeat sequence was added to the C-terminus of KU-5878, and the antibacterial activities of the peptides were evaluated. According to Table 15 below, when the R (arginine) repeat sequence or K (lysine) sequence was added to the C-terminus of KU-5878, the antibacterial activity of the peptide increased.

Molecule	MBC Pseudomonas aeruginosa [1] [µg/mL]	MBC Staphylococcus aureus [2] [µg/mL]	MBC MRSA [3] [µg/mL]	MBC CRPA [4] [µg/mL]	MBC value (μg/ml) against Pseudomonas aeruginosa ([1]; ATCC 27853, 1 h) [µg/mL]	MBC value (μg/ml) against Staphylococcus aureus ([2]; ATCC 29213, 1 h) [µg/mL]	further results
KTMMQSGGTFGTFMAIGMG-R [Peptide 5878-d77I]	> 300	> 300	> 300	> 300			
KT-MQS-GTFGTFM-IG-GIR [5878-d60M, d64G, d72A, d75M]	120	100	120	120			
KTMMQSGGRFGTFMAIGMGIR [KU-5878-T66R]	80	90	90	80			
KTMMQSGGTFGT-MAIGMGIR [Peptide 5878-d70F]	200	200	200	200			
KTMMQSGGTFGTFMAIGM [KU-5875]					>300	>300	
KAMMQSGGTFGTFMAIGMGIR [KU-5878-T59A]	150	120	140	130			
KHMMQSGGTFGTFMAIGMGIR [KU-5878-T59H]	> 300	> 300	> 300	> 300			
KTMMQSGGTFGTFMAIGMGTR [KU-5878-I77T]	> 300	> 300	> 300	> 300	>300	>300	
KTMMQSGGSFGTFMAIGMGIR [KU-5878-T66S]	> 300	> 300	> 300	> 300			
KTMMQSGGTFGTFMGIGMGIR [KU-5878-A72G]	> 300	> 300	> 300	> 300	350	350	
KTMMQSGGTFGTFMAIGMG [KU-5876]					>300	>300	
KTMMQRGGTFGTFMAIGMGIR [KU-5878-S63R]	20	15	25	20			
KTMMQHGGTFGTFMAIGMGIR [KU-5878-S63H]	100	100	110	100			
KTMMQSGGTFGTFMAIG-GIR [Peptide 5878-d75M]	100	100	110	100			
KTMMQSGGTFGTF-AIGMGIR [Peptide 5878-d71M]	250	250	300	300			
KTMMQSGGTFGTF-AIG-GIR [5878-d71M, d75M]	300	250	300	300			
GKTMMQSGGTFGTFMAIGMGIR [KU-5778]					300	280	
CLRIGMRGRELMGGIGKTM [pCM19, reference compound]					300	250	
CC[C@@H](C)[C@@H](NC(=O)CNC(=O)[C@@H](CCSC)NC(=O)CNC(=O)[C@H](NC(=O)[C@@H](C)NC(=O)[C@@H](CCSC)NC(=O)[C@@H](Cc1ccccc1)NC(=O)[C@H](NC(=O)CNC(=O)[C@@H](Cc1ccccc1)NC(=O)[C@H](NC(=O)CNC(=O)CNC(=O)[C@@H](CO)NC(=O)[C@@H](CCC(N)=O)NC(=O)[C@@H](CCSC)NC(=O)[C@@H](CCSC)NC(=O)[C@H](NC(=O)[C@H](N)CCCCN)[C@H](C)O)[C@H](C)O)[C@H](C)O)[C@H](C)CC)C(=O)N[C@H](CCCNC(=N)N)C(=O)O [KU-5878-D(all)] (H-[dK][dT][dM][dM][dQ][dS]GG[dT][dF]G[dT][dF][dM][dA][dI]G[dM]G[dI][dR]-OH; N-terminus and C-terminus assumed)							MBC (μg/ml) value against Pseudomonas aeruginosa ([1]; ATCC 27853, 1 h): 300 µg/mL (≈ 135 µM); MBC (μg/ml) value against Staphylococcus aureus ([2]; ATCC 29213, 1 h): 300 µg/mL (≈ 135 µM)
GGIGKTMMQSGGTFGTFMAIGMGIRC [KU-5479]						200	
GKTMMQSGGTFGTFMAIGMGIRC [KU-5779]					280	250	
KTMMQSGGTFGTFMAIGMGIR-NH2 [KU-5878-NH2]					60	70	
KTMMQSGGTFGTFMAIGMGIRC [KU-5879]					150		
KTMMQSGGTFGTFMAIGMGI [KU-5877]					>300	>300	
B1							MBC value (μg/ml) against Pseudomonas aeruginosa ([1]; ATCC 27853, 1 hour reaction at 37° C.): Insoluble; MBC value (μg/ml) against Staphylococcus aureus ([2]; ATCC 29213, 1 hour reaction at 37° C.): Insoluble
